Source: ChEMBL document CHEMBL4130471, “Design and synthesis of tranylcypromine derivatives as novel LSD1/HDACs dual inhibitors for cancer treatment” (Eur J Med Chem, 2017)

Key:
MCF7 = test: cells; type: functional, cell-based; details: Homo sapiens, MCF7, 72 h
Description: Antiproliferative activity against human MCF7 cells incubated for 72 hrs by MTT assay

[1] = molecular target: Lysine-specific histone demethylase 1A (Homo sapiens, UniProt O60341)
Description: Inhibition of recombinant LSD1 (157 to 852 amino acids) (unknown origin) expressed in Escherichia coli BL21(DE) using H3K4me2 substrate by amplex red and horseradish peroxidase based fluorescence assay

Histone deacetylase 2 = Histone deacetylase 2 (Homo sapiens, UniProt Q92769)
Description: Inhibition of C-terminal His-tagged full length human HDAC2 expressed in baculovirus expression system using Ac-peptide substrate incubated for 15 mins by fluorescence based assay

A549 = test: cells; type: functional, cell-based; details: Homo sapiens, A549, 72 h
Description: Antiproliferative activity against human A549 cells incubated for 72 hrs by MTT assay

Histone deacetylase 1 = Histone deacetylase 1 (Homo sapiens, UniProt Q13547); test: Inhibition of C-terminal His-tagged and C-terminal FLAG-tagged human HDAC1 expressed in baculovirus expression system using Ac-peptide substrate incubated for 15 mins by fluorescence based assay
Chain of Histone deacetylase 1 (Q13547 whole entry): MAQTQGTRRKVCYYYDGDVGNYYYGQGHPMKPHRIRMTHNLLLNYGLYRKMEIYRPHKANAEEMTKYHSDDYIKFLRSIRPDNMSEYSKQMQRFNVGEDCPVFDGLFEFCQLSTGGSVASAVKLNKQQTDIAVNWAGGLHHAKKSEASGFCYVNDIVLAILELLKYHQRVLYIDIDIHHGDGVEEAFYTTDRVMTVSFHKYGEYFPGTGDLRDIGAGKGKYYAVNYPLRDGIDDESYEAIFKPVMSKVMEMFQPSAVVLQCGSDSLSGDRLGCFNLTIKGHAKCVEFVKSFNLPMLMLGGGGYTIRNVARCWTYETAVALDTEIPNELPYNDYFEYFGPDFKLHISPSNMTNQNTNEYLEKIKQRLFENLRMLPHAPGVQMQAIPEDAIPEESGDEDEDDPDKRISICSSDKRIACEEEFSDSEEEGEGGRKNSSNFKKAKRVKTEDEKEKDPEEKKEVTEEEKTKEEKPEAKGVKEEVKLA

SW-620 = test: cells; type: functional, cell-based; details: Homo sapiens, SW-620, 72 h
Description: Antiproliferative activity against human SW620 cells incubated for 72 hrs by MTT assay

[2] = molecular target: T1, Amine oxidase [flavin-containing] B (Homo sapiens, UniProt P27338)
T1 sequence (P27338 whole entry): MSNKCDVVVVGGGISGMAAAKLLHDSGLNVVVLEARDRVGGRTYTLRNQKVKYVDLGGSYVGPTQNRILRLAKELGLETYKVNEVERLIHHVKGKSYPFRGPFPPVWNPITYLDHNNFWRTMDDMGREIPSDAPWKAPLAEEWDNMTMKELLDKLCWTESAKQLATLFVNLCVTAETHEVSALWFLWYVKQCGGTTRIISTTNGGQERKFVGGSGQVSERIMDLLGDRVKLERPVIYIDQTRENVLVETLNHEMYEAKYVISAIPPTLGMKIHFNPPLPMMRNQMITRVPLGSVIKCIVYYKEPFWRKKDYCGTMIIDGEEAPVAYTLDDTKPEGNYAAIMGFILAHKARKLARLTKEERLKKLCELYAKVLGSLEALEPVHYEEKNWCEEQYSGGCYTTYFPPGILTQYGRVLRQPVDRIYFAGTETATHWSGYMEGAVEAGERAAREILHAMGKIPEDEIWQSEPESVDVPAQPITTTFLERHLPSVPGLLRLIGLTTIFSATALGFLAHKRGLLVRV
Description: Inhibition of MAOB (unknown origin) using beetle luciferin as substrate by MAO-Glo assay

[3] = molecular target: T2, Amine oxidase [flavin-containing] A (Homo sapiens, UniProt P21397)
T2 sequence (P21397 whole entry): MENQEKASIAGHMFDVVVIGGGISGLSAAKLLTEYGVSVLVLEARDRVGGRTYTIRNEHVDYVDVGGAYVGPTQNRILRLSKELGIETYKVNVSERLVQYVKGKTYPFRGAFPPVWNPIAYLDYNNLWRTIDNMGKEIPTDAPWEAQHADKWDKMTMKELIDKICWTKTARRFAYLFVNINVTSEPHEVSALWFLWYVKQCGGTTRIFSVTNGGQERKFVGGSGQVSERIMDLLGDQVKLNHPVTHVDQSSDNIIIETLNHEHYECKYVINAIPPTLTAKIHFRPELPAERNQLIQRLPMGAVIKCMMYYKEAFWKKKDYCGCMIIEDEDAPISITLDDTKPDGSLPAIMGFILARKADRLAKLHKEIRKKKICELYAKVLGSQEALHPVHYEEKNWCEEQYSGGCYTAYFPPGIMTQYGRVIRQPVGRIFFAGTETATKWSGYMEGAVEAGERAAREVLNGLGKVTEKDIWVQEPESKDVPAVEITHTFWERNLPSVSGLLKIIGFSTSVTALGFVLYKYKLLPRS
Description: Inhibition of MAOA (unknown origin) using beetle luciferin as substrate by MAO-Glo assay

MGC-803 = test: cells; type: functional, cell-based; details: Homo sapiens, MGC-803, 72 h
Description: Antiproliferative activity against human MGC803 cells incubated for 72 hrs by MTT assay

Histone deacetylase 5 = Histone deacetylase 5 (Homo sapiens, UniProt Q9UQL6); test: Inhibition of C-terminal His-tagged human HDAC5 (656-1122 residues) expressed in baculovirus expression system using Ac-peptide substrate incubated for 15 mins by fluorescence based assay
Chain of Histone deacetylase 5 (Q9UQL6 whole entry, the tested form may be a part): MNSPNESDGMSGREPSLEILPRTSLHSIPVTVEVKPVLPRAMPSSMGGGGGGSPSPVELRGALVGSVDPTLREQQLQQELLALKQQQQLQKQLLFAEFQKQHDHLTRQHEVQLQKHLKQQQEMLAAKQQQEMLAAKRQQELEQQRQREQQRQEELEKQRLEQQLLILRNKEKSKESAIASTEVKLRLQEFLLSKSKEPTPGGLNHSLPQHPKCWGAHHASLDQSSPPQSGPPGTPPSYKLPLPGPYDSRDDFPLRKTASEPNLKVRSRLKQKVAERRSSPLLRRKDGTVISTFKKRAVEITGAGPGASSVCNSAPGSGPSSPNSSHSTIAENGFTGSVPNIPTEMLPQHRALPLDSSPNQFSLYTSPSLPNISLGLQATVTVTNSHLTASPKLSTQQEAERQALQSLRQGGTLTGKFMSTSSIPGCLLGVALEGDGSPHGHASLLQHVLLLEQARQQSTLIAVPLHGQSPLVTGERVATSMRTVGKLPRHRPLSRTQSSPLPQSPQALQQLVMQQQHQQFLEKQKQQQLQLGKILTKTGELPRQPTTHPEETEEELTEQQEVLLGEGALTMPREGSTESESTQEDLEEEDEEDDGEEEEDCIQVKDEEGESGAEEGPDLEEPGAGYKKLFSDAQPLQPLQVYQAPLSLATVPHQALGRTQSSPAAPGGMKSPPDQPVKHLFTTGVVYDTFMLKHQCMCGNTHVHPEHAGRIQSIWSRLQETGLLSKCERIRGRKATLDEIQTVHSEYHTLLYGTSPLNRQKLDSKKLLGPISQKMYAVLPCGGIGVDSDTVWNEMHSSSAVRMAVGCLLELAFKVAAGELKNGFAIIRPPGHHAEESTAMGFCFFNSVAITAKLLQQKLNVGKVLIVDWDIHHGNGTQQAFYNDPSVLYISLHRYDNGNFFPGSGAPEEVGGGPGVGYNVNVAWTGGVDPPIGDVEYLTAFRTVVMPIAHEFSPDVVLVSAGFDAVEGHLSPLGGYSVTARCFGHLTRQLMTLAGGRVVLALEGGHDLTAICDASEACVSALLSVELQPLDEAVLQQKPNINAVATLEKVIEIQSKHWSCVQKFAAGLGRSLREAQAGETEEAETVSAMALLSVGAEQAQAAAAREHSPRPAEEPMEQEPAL

PC-3 = test: cells; type: functional, cell-based; details: Homo sapiens, PC-3, 72 h
Description: Antiproliferative activity against human PC3 cells incubated for 72 hrs by MTT assay

Chain of Histone deacetylase 2 (Q92769 whole entry): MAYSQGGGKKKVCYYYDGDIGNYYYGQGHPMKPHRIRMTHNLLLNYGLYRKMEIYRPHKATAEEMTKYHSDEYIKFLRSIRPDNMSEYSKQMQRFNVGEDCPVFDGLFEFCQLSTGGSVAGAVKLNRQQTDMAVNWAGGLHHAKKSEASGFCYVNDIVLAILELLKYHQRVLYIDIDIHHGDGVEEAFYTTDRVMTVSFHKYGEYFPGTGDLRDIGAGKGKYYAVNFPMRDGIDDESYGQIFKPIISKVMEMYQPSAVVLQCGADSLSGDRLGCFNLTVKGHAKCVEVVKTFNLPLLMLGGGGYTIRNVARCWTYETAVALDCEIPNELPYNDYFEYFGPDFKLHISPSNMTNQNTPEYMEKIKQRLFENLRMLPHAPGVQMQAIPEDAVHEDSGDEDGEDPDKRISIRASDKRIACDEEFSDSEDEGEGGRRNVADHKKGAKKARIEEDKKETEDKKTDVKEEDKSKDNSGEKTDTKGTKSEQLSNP

Row | SMILES | IC50 (MCF7) | IC50 [1] | IC50 (Histone deacetylase 2) | IC50 (A549) | IC50 (Histone deacetylase 1) | IC50 (SW-620) | IC50 [2] | IC50 [3] | IC50 (MGC-803) | IC50 (Histone deacetylase 5; read-out: IC50) | IC50 (PC-3) | IC50 (Histone deacetylase 5)
1 | O=C(/C=C/c1ccc(CNC2CC2c2ccccc2)cc1)NO (centres undefined) | 6.24 µM | 2.21 µM | 25 nM | 1.41 µM | 12 nM | 4.03 µM | > 100 µM | 39.4 µM | 2.46 µM | 2970 nM | 5.62 µM | –
2 | O=C(CCCCCCC(=O)Nc1ccccc1)NO [VORINOSTAT] | – | – | – | – | – | – | > 100 µM | > 100 µM | – | – | – | –
3 | O=C(NO)c1ccc(CNC2CC2c2ccccc2)cc1 (centres undefined) | 17.3 µM | 4.09 µM | 3100 nM | 6.75 µM | 1440 nM | 23.3 µM | > 100 µM | 45.8 µM | 12 µM | – | 19.8 µM | Not Active
